Source: ChEMBL document CHEMBL5230103, “Hydroxamic acid hybrids as the potential anticancer agents: An Overview” (Eur J Med Chem, 2020)

How the values were obtained:
ASPC1 [1] = test: Potency index, ratio of vorinostat IC50 to test compound IC50 for cytotoxicity against human ASPC1 cells assessed as inhibition of cell growth by SRB assay; assay type: functional
SW-620 [2] = test: Cytotoxicity against human SW620 cells assessed as inhibition of cell growth by SRB assay; assay type: functional, cell-based
PC-3 [3] = test: Potency index, ratio of vorinostat IC50 to test compound IC50 for cytotoxicity against human PC-3 cells assessed as inhibition of cell growth by SRB assay; assay type: functional
SW-620 [4] = test: Potency index, ratio of vorinostat IC50 to test compound IC50 for cytotoxicity against human SW620 cells assessed as inhibition of cell growth by SRB assay; assay type: functional
ASPC1 [5] = test: Cytotoxicity against human ASPC1 cells assessed as inhibition of cell growth by SRB assay; assay type: functional, cell-based
PC-3 [6] = test: Cytotoxicity against human PC-3 cells assessed as inhibition of cell growth by SRB assay; assay type: functional, cell-based
Histone deacetylase 2 = Histone deacetylase 2 (Homo sapiens, UniProt Q92769); test: Inhibition of HDAC2 (unknown origin)
Chain of Histone deacetylase 2 (Q92769 whole entry): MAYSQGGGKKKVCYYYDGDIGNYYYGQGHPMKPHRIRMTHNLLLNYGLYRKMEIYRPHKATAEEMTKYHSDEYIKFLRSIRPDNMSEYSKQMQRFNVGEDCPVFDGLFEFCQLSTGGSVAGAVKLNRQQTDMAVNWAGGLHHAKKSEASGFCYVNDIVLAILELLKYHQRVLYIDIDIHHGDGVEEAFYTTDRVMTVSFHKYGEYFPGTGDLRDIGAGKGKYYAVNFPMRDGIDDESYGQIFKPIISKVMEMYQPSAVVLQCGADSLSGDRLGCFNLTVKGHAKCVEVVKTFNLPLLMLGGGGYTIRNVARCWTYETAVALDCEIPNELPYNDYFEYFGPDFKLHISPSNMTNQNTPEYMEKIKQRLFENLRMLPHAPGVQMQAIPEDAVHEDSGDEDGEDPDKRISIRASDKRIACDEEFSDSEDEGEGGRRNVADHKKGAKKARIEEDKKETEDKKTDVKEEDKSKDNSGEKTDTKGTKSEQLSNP

Kasumi 1 = test: Cytotoxicity against human Kasumi 1 cells assessed as inhibition of cell growth by MTT assay; assay type: functional, cell-based
NB-4 = test: Cytotoxicity against human NB-4 cells assessed as inhibition of cell growth by MTT assay; assay type: functional, cell-based
B16-F10 = test: Cytotoxicity against mouse B16-F10 cells assessed as inhibition of cell growth by MTT assay; assay type: functional, cell-based
MCF7 [7] = test: Cytotoxicity against human MCF7 cells assessed as inhibition of cell growth by MTT assay; assay type: functional, cell-based
[8] = Selectivity index, ratio of CC50 for cytotoxicity against HEK293 cells to IC50 for cytotoxicity against human MCF7 cells; assay type: toxicity, cell-based; details: HEK293 cells and MCF7 cells, read-out: Ratio CC50/IC50
HeLa = test: Cytotoxicity against human HeLa cells assessed as inhibition of cell growth by MTT assay; assay type: functional, cell-based
Histone deacetylase 3 = Histone deacetylase 3 (Homo sapiens, UniProt O15379); test: Inhibition of HDAC3 (unknown origin)
Chain of Histone deacetylase 3 (O15379 whole entry): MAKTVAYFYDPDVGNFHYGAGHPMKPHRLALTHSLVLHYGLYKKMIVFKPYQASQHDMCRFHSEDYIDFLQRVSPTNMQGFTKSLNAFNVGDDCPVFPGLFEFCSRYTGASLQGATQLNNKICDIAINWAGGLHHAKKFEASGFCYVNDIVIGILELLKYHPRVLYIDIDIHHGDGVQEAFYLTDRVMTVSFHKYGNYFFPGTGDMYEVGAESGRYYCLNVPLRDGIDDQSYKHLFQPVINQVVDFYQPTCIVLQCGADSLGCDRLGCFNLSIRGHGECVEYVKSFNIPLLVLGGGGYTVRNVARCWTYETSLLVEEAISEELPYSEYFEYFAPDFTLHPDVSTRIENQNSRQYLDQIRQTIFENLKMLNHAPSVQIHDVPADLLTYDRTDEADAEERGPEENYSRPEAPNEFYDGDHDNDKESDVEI

Jurkat E6.1 = test: Cytotoxicity against human Jurkat E6.1 cells assessed as inhibition of cell growth by MTT assay; assay type: functional, cell-based
[9] = Selectivity index, ratio of CC50 for cytotoxicity against HEK293 cells to IC50 for cytotoxicity against mouse B16-F10 cells; assay type: toxicity, cell-based; details: human, HEK293 cells and B16-F10 cells; read-out: Ratio CC50/IC50
A549 [10] = test: Cytotoxicity against human A549 cells assessed as inhibition of cell growth by MTT assay; assay type: functional, cell-based
[11] = Selectivity index, ratio of CC50 for cytotoxicity against HEK293 cells to IC50 for cytotoxicity against human Jurkat E6.1 cells; assay type: toxicity, cell-based; details: HEK293 cells and Jurkat E6.1 cells, read-out: Ratio CC50/IC50
[12] = Selectivity index, ratio of CC50 for cytotoxicity against HEK293 cells to IC50 for cytotoxicity against human A549 cells; assay type: toxicity, cell-based; details: HEK293 cells and A549 cells, read-out: Ratio CC50/IC50
[13] = Selectivity index, ratio of CC50 for cytotoxicity against HEK293 cells to IC50 for cytotoxicity against human HeLa cells; assay type: toxicity, cell-based; details: HEK293 cells and HeLa cells, read-out: Ratio CC50/IC50
[14] = Cytotoxicity against HEK293 cells by MTT assay; assay type: toxicity, cell-based; details: human
HT-29 [15] = test: Antitumor activity against human HT-29 cells xenografted in mouse assessed as tumor growth inhibition at 25 mg/kg, po relative to control; assay type: functional; details: read-out: TGI
HT-29 [16] = test: Antitumor activity against human HT-29 cells xenografted in mouse assessed as tumor growth inhibition at 100 mg/kg, po relative to control; assay type: functional; details: read-out: TGI
HT-29 [17] = test: Antitumor activity against human HT-29 cells xenografted in mouse assessed as tumor growth inhibition at 50 mg/kg, po relative to control; assay type: functional; details: read-out: TGI
Ehrlich = test: Antitumor activity against mouse EAC cells implanted in mouse assessed as survival rate at 125 mg/kg, ip administered for 10 days; assay type: functional; details: 240 h, time 10 day
HCT-116 [18] = test: Cytotoxicity against human HCT-116 cells assessed as inhibition of cell growth measured after 24 hrs by MTT assay; assay type: functional, cell-based; details: HCT-116, 24 h
MDA-MB-231 [19] = test: Cytotoxicity against human MDA-MB-231 cells assessed as inhibition of cell growth measured after 24 hrs by MTT assay; assay type: functional, cell-based; details: MDA-MB-231, 24 h
MCF7 [20] = test: Cytotoxicity against human MCF7 cells assessed as inhibition of cell growth measured after 24 hrs by MTT assay; assay type: functional, cell-based; details: MCF7, 24 h
[21] = biological target: Histone deacetylase 8 (Homo sapiens) (UniProt Q9BY41); test: Inhibition of HDAC8 (unknown origin) at 25 nM relative to control
Chain of Histone deacetylase 8 (Homo sapiens) (Q9BY41 whole entry): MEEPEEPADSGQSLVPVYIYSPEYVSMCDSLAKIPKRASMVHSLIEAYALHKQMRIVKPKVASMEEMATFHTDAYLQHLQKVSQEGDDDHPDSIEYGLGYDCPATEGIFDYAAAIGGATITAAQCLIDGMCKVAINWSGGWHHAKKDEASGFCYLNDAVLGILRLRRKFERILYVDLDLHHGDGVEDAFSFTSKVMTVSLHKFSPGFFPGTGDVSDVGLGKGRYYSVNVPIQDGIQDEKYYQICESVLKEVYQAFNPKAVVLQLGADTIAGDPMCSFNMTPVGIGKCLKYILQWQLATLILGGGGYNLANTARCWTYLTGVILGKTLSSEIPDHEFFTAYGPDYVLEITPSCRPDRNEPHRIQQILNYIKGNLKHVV

MDA-MB-231 [22] = test: animal or person; assay type: functional, Homo sapiens; details: Mus musculus, route po, read-out: TGI
Description: Antitumor activity against human MDA-MB-231 cells xenografted in mouse assessed as tumor growth inhibition at 25 mg/kg, po relative to control

T47D = test: Cytotoxicity against human T47D cells assessed as inhibition of cell growth by MTS assay; assay type: functional, cell-based
MDA-MB-231 [23] = test: Cytotoxicity against human MDA-MB-231 cells assessed as inhibition of cell growth by MTS assay; assay type: functional, cell-based
MCF7 [24] = test: Cytotoxicity against human MCF7 cells assessed as inhibition of cell growth by MTS assay; assay type: functional, cell-based
Hep 3B2 = test: Cytotoxicity against human Hep3B cells assessed as inhibition of cell growth by MTT assay; assay type: functional
A549 [25] = test: Cytotoxicity against human A549 cells assessed as inhibition of cell growth by SRB assay; assay type: functional
Histone deacetylase = test: Inhibition of HDAC (unknown origin); assay type: protein assay, Homo sapiens
HCT-116 [26] = test: Cytotoxicity against human HCT-116 cells assessed as inhibition of cell growth by SRB assay; assay type: functional, cell-based
[27] = biological target: Histone deacetylase (Homo sapiens) (UniProt Q13547+O15379+Q9UBN7+Q92769+Q9UQL6+Q8WUI4+Q9BY41+Q96DB2+P56524+Q9UKV0+Q969S8); test: Potency index, ratio of vorinostat IC50 to test compound IC50 for inhibition of HDAC (unknown origin); assay type: protein assay

Q: Which “Ratio IC50” value (ASPC1 [1]) does the source give for `CO/N=C1\CN(Cc2ccc(/C=C/C(=O)NO)cc2)c2ccc(F)cc21` here?
A: 1.8

Q: What about the IC50 (SW-620 [2]) of the same molecule?
A: 0.47 µM

Q: What about the “Ratio IC50” value (PC-3 [3]) of the same molecule?
A: 1.8

Q: And the “Ratio IC50” value (SW-620 [4])?
A: 1.8

Q: What about the IC50 (ASPC1 [5]) of the same molecule?
A: 0.47 µM

Q: What about the IC50 (PC-3 [6]) of the same molecule?
A: 0.47 µM

Q: And the IC50 (Histone deacetylase 2)?
A: 0.267 µM

Q: With `Cn1c(CCCCCCC(=O)NO)nc2cc(N(CCCl)CCCl)ccc21` [TINOSTAMUSTINE] as the molecule, how does the IC50 (Kasumi 1) read?
A: 0.82 µM

Q: What about the IC50 (NB-4) of the same molecule?
A: 0.9 µM

Q: For `O=C(CCCN1CCN(C(=O)Nc2cccc3ncccc23)CC1)NO`, which IC50 (B16-F10) is on record?
A: 7.19 µM

Q: And the IC50 (MCF7 [7])?
A: 7.19 µM

Q: And the selectivity ratio [8]?
A: > 8.7

Q: What about the IC50 (HeLa) of the same molecule?
A: 7.19 µM

Q: And the IC50 (Histone deacetylase 3)?
A: 0.00442 µM

Q: What about the IC50 (Jurkat E6.1) of the same molecule?
A: 7.19 µM

Q: And the selectivity ratio [9]?
A: > 8.7

Q: What about the IC50 (A549 [10]) of the same molecule?
A: 7.19 µM

Q: And the selectivity ratio [11]?
A: > 8.7

Q: And the selectivity ratio [12]?
A: > 8.7

Q: And the selectivity ratio [13]?
A: > 8.7

Q: And the CC50 [14]?
A: > 100 µM

Q: Which inhibition in vivo at 25 mg/kg (HT-29 [15]) does the source give for `C[C@H](NC(=O)c1nc(-c2ncc(-c3ccccc3)s2)sc1C1CC1)c1ccc(C(=O)NO)cc1` here?
A: 39.4%

Q: And the inhibition in vivo at 100 mg/kg (HT-29 [16])?
A: 62.5%

Q: And the inhibition in vivo at 50 mg/kg (HT-29 [17])?
A: 40.7%

Q: With `Nn1c(SCCC(=O)NO)nnc1-c1cccnc1` as the molecule, how does the survival at 125 mg/kg (Ehrlich) read?
A: 205%

Q: And the IC50 (HCT-116 [18])?
A: 10.4 µM

Q: What about the IC50 (MDA-MB-231 [19]) of the same molecule?
A: 10.4 µM

Q: And the IC50 (MCF7 [20])?
A: 10.4 µM

Q: With `Nc1ccnc(NC(=O)[C@@H](N)CCCCC(=O)NO)n1` as the molecule, how does the IC50 (Jurkat E6.1) read?
A: 20 µM

Q: What about the inhibition [21] of the same molecule?
A: 75%

Q: What does the source list for `CCCCc1nc2cc(/C=C/C(=O)NO)ccc2n1CCN(CC)CC` [PRACINOSTAT]?
A: inhibition in vivo at 25 mg/kg (MDA-MB-231 [22]): 50%; IC50 (T47D): 5.34 µM; IC50 (MDA-MB-231 [23]): 5.34 µM; IC50 (MCF7 [24]): 5.34 µM

Q: What does the source list for `Cc1c(CCNS(=O)(=O)c2ccc(/C=C/C=C/C(=O)NO)cc2)c2ccccc2n1C`?
A: GI50 (Hep 3B2): 0.02 µM; GI50 (A549 [25]): 0.02 µM; IC50 (Histone deacetylase): 0.0034 µM; GI50 (HCT-116 [26]): 0.02 µM; Ratio IC50 [27]: 35; GI50 (PC-3 [6]): 0.02 µM
